Assay results as given in PMC11008251, “Distribution of 2,2′,5,5′-Tetrachlorobiphenyl (PCB52) Metabolites in Adolescent Rats after Acute Nose-Only Inhalation Exposure” (Environmental Science & Technology, 2024).
Where two headings read alike, the source gives them in different places.

Tests used:
[1] = design: method as in PMID 23582014; settings: male rats exposed acutely to PCB11 vapors; cited from earlier work
[2] = design: method as in PMID 24275706; settings: cited from earlier work
[3] = PCB52 and monohydroxylated metabolite tissue levels by GC-MS/MS after 4 h nose-only inhalation; assay type: in vivo, Sprague–Dawley rats; settings: Sprague-Dawley, rat, inhaled
Method: PCB52 vapor for the animal exposure was generated using a published protocol.[12] Briefly, 450 g of 3 mm diameter glass beads were added to a solution of 1.5 g of PCB52 in dichloromethane. The glass beads were then coated with PCB52 by evaporating dichloromethane in a water bath at 29 °C using a rotary evaporator (Buchi Rotavapor R-200, New Castle, DE) under reduced pressure. For the animal exposures, high-efficiency particulate air (HEPA)-filtered laboratory air was passed through the PCB52-coated glass beads at a flow rate of 12 L/min to expose animals to PCB52 vapor in a nose-only exposure apparatus (Figure 1A). The flask of PCB52-coated beads and mixing chamber were kept at 25.0 °C using a precision water bath to facilitate the volatilization of PCB52. The PCB52-laden air was passed through a mixing chamber and distributed to the nose-only inhalation apparatus at a flow rate of 4 L/min per tower (n = 3) and a sampling cartridge filled with 10 g of Amberlite XAD-2 polymeric absorbent resin (Sigma-Aldrich, St. Louis, MO) at a flow rate of 2 L/min. The specified flow rates were generated using flow meter-regulated pumps. The XAD-2 cartridge was used to capture PCB52 vapor to characterize the exposure atmosphere. A sham exposure group was exposed in parallel to HEPA-filtered clean air in an identical nose-only exposure system in an adjacent lab with no supplied PCB52.
The Institutional Animal Care and Use Committee of the University of Iowa approved all of the animal protocols. Animals were housed in a temperature- and humidity-controlled room (21 °C, 55% relative humidity) with a 12 h light/dark cycle in an Association for the Assessment and Accreditation of Laboratory Animal Care (AAALAC) accredited animal facility. Animals were provided with food (sterile Teklad 5% stock diet, Harlan, Madison, WI) and water ad libitum throughout the study. Thirty-six male and female Sprague–Dawley rats (7 weeks of age; Charles River, Wilmington, MA) were allowed to acclimate to the animal facility for 8 days after arrival. Prior to exposure, rats (227 ± 27 and 197 ± 13 g, male and female, respectively) were randomly assigned to the exposure groups (n = 6 per group) using a random number generated (Excel, version 2307). Animals were simultaneously exposed for 4 h to a low or high concentration of PCB52-laden per sex) or filtered lab air (Figure 1A). Exposure duration was limited to 4 h along with scheduled training days (30 min at 55 days of age and 2 h at 56 days of age) to acclimate animals and minimize stress. […] Animal exposure occurred for 4 h at 57 days of age. Rats are considered adolescents at this age.[38] Serum was collected immediately after the animals were removed from the nose-only apparatus by cardiac puncture under isoflurane anesthesia. Rats were perfused with saline, and organs were excised and stored at −80 °C. Body and organ weights, including brain, lungs, and thymus, were not altered by PCB52 inhalation regardless of sex or exposure (Tables S2 and S3).
PCB52 and its hydroxylated metabolites were extracted from tissues, serum, and cecum and intestinal content using a published protocol;[40],[41] see the Supporting Information. Briefly, PCB52 and its metabolites were extracted from homogenates by liquid–liquid extraction and cleaned by solid-phase extraction with acidified silica gel. PCB52 and metabolites were quantified in the multiple reaction monitoring setting (MRM) on an Agilent 7890 A GC system equipped with an Agilent 7000 Triple Quad and Agilent 7693 autosampler (Agilent Technologies, Santa Clara, CA); see the Supporting Information.
PCB52 and metabolite levels, adjusted for tissue wet weight, are reported as the mean ± standard deviation. Differences in PCB52 and metabolite levels from the GC-MS/MS analysis were analyzed with the Tobit regression model because some measurements are below the detection limit. […]

[4] = design: method as in PMID 36804509; settings: 3 weeks after intraperitoneal administration of PCB52 100 mg/kg bw; cited from earlier work

Question: Which “rank order of tissue levels” value [1] does the source give for `Clc1cccc(-c2cccc(Cl)c2)c1` [PCB11, 3,3′-dichlorobiphenyl] here?
Answer: The value was “lung > serum > liver”.

Question: What about the “time to radioactivity in the systemic circulation” value ([2]; intratracheally instilled 14C-labeled PCB11) of the same molecule?
Answer: Its value is no more than 12 min.

Question: And the “time of highest levels of extractable PCB11 metabolites in the jejunum and ileum” value ([2]; postexposure)?
Answer: The value was “approximately 100 min”.

Question: With `Oc1cc(Cl)c(-c2cc(Cl)ccc2Cl)cc1Cl` [4-OH-PCB52, 2,2′,5,5′-Tetrachlorobiphenyl-4-ol] as the molecule, how does the concentration at 4 h ([3]; both sexes, brain, irrespective of sex and exposure group, GC-MS/MS, read-out: level in the brain (below the detection limit)) read?
Answer: The concentration at 4 h was less than 0.16 ng/g.

Question: What about the concentration at 4 h ([3]; female, adipose, female, high dose, mean, read-out: PCB or metabolite detected level, Adipose) of the same molecule?
Answer: Its concentration at 4 h is 0.2 ng/g.

Question: What about the concentration at 4 h ([3]; female, cecum, female, high dose, mean, read-out: PCB or metabolite detected level, Cecum) of the same molecule?
Answer: Its concentration at 4 h is 3 ng/g.

Question: What about the concentration at 4 h ([3]; female, cecum, female, low dose, mean, read-out: PCB or metabolite detected level, Cecum) of the same molecule?
Answer: Its concentration at 4 h is 2 ng/g.

Question: What about the concentration at 4 h ([3]; female, intestinal content, female, high dose, mean, read-out: PCB or metabolite detected level, Intestinal content) of the same molecule?
Answer: Its concentration at 4 h is 5 ng/g.

Question: What about the concentration at 4 h ([3]; female, intestinal content, female, low dose, mean, read-out: PCB or metabolite detected level, Intestinal content) of the same molecule?
Answer: The concentration at 4 h was 4 ng/g.

Question: What about the concentration at 4 h ([3]; female, liver, female, high dose, mean, read-out: PCB or metabolite detected level, Liver) of the same molecule?
Answer: Its concentration at 4 h is 0.2 ng/g.

Question: And the concentration at 4 h ([3]; female, liver, female, low dose, mean, read-out: PCB or metabolite detected level, Liver)?
Answer: The concentration at 4 h was 0.2 ng/g.

Question: What about the concentration at 4 h ([3]; female, lung, female, high dose, mean, read-out: PCB or metabolite detected level, Lung) of the same molecule?
Answer: The concentration at 4 h was 0.2 ng/g.

Question: And the concentration at 4 h ([3]; female, lung, female, low dose, mean, read-out: PCB or metabolite detected level, Lung)?
Answer: The concentration at 4 h was 0.1 ng/g.

Question: And the concentration at 4 h ([3]; female, serum, female, high dose, mean, read-out: PCB or metabolite detected level, Serum)?
Answer: The concentration at 4 h was 0.1 ng/g.

Question: What about the concentration at 4 h ([3]; female, serum, female, low dose, mean, read-out: PCB or metabolite detected level, Serum) of the same molecule?
Answer: The concentration at 4 h was 0.4 ng/g.

Question: What about the concentration at 4 h ([3]; male, adipose, male, high dose, mean, read-out: PCB or metabolite detected level, Adipose) of the same molecule?
Answer: Its concentration at 4 h is 0.2 ng/g.

Question: And the concentration at 4 h ([3]; male, cecum, male, high dose, mean, read-out: PCB or metabolite detected level, Cecum)?
Answer: Its concentration at 4 h is 2 ng/g.

Question: What about the concentration at 4 h ([3]; male, cecum, male, low dose, mean, read-out: PCB or metabolite detected level, Cecum) of the same molecule?
Answer: The concentration at 4 h was 1 ng/g.

Question: And the concentration at 4 h ([3]; male, intestinal content, male, high dose, mean, read-out: PCB or metabolite detected level, Intestinal content)?
Answer: The concentration at 4 h was 0.4 ng/g.

Question: What about the concentration at 4 h ([3]; male, liver, male, high dose, mean, read-out: PCB or metabolite detected level, Liver) of the same molecule?
Answer: Its concentration at 4 h is 0.3 ng/g.

Question: What about the concentration at 4 h ([3]; male, liver, male, low dose, mean, read-out: PCB or metabolite detected level, Liver) of the same molecule?
Answer: Its concentration at 4 h is 0.1 ng/g.

Question: What about the concentration at 4 h ([3]; male, lung, male, high dose, mean, read-out: PCB or metabolite detected level, Lung) of the same molecule?
Answer: Its concentration at 4 h is 0.2 ng/g.

Question: And the concentration at 4 h ([3]; male, lung, male, low dose, mean, read-out: PCB or metabolite detected level, Lung)?
Answer: Its concentration at 4 h is 0.1 ng/g.

Question: And the concentration at 4 h ([3]; male, serum, male, high dose, mean, read-out: PCB or metabolite detected level, Serum)?
Answer: Its concentration at 4 h is 0.4 ng/g.

Question: What about the concentration at 4 h ([3]; male, serum, male, low dose, mean, read-out: PCB or metabolite detected level, Serum) of the same molecule?
Answer: The concentration at 4 h was 0.4 ng/g.

Question: And the “detection frequency in the rat brain” value [4]?
Answer: Its value is 20%.
